biological target: recombinant human GST-Syk (Homo sapiens (Human), UniProt P43405); assay: Homogeneous Time-Resolved Fluorescence (HTRF) assay for the recombinant human Syk enzyme; assay type: biochemical; settings: recombinant human GST-Syk 5 pM, ATP 25 μM, read-out: rhSyk IC50
How it was run: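 Recombinant GST-hSyk fusion protein kinase activity was read by HTRF. Reactions were started with biotinylated substrate peptide at 250 nM final, Mg 5 mM final and ATP 25 μM final. Potency derived from inhibition of substrate phosphorylation.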

IC50	SMILES
3 nM	Cc1cc(Nc2cc(C(F)(F)F)ccn2)nc(-c2ccc(N3CCC(C4CCCCC4C(=O)O)CC3)nc2)c1 (stereo not shown) [Example 3-1]
8 nM	Cc1cc(Nc2cc(C(F)(F)F)ccn2)nc(-c2ccc(NC3CCN(C(=O)c4cnc5ccc(F)cc5c4)CC3)nc2)c1 [Example 4, (6-Fluoroquinolin-3-yl)(4-(4-methyl-6-(4-(trifluoromethyl)pyridin-2-ylamino)-2,3′-bipyridin-6′-ylamino)piperidin-1-yl)methanone]
9 nM	Cc1cc(Nc2cc(C(F)(F)F)ccn2)nc(-c2ccc(NC3CCN(C(=O)Cc4ccc(-c5cn[nH]c5)cc4)CC3)nc2)c1 [Example 4-1]
1 nM	Cc1cc(Nc2cc(C(F)(F)F)ccn2)nc(-c2ccc(NC3CCN(C(=O)Cc4ccc5ccn(C)c5c4)CC3)nc2)c1 [Example 4-2]
8 nM	Cc1cc(Nc2cc(C(F)(F)F)ccn2)nc(-c2ccc(NC3CCN(C(=O)Cc4ccc5cn[nH]c5c4)CC3)nc2)c1 [Example 4-3]
1 nM	Cc1cc(Nc2cc(C(F)(F)F)ccn2)nc(-c2ccc(NC3CCN(C(=O)c4ccc5c(c4)C(=O)NC5)CC3)nc2)c1 [Example 4-4]
2 nM	Cc1cc(Nc2cc(C(F)(F)F)ccn2)nc(-c2ccc(NC3CCN(C(=O)c4ccc5c(c4)CNC5=O)CC3)nc2)c1 [Example 4-5]
22 nM	Cc1cc(Nc2cc(C(F)(F)F)ccn2)nc(-c2ccc(NC3CCN(C(=O)c4[nH]c5ccccc5c4C)CC3)nc2)c1 [Example 4-6]
10 nM	Cc1cc(Nc2cc(C(F)(F)F)ccn2)nc(-c2ccc(NC3CCN(C(=O)c4ccc5[nH]cc(C)c5c4)CC3)nc2)c1 [Example 4-7]
7 nM	Cc1cc(Nc2cc(C(F)(F)F)ccn2)nc(-c2ccc(NC3CCN(C(=O)Cc4n[nH]c5ccccc45)CC3)nc2)c1 [Example 4-8]
12 nM	Cc1cc(Nc2cc(C(F)(F)F)ccn2)nc(-c2ccc(NC3CCN(C(=O)c4cccc(-c5cn[nH]c5)c4)CC3)nc2)c1 [Example 4-9]
14 nM	Cc1cc(Nc2cc(C(F)(F)F)ccn2)nc(-c2ccc(NC3CCN(C(=O)c4cc(-c5ccccc5)n[nH]4)CC3)nc2)c1 [Example 4-10]
2 nM	Cc1cc(Nc2cc(C(F)(F)F)ccn2)nc(-c2ccc(NC3CCN(C(=O)CCN4CCCC4=O)CC3)nc2)c1 [Example 4-11]
4 nM	Cc1cc(Nc2cc(C(F)(F)F)ccn2)nc(-c2ccc(NC3CCN(C(=O)Cc4cccc5ncccc45)CC3)nc2)c1 [Example 4-12]
9 nM	Cc1cc(Nc2cc(C(F)(F)F)ccn2)nc(-c2ccc(NC3CCN(C(=O)c4cccc5ncccc45)CC3)nc2)c1 [Example 4-13]
6 nM	Cc1cc(Nc2cc(C(F)(F)F)ccn2)nc(-c2ccc(NC3CCN(C(=O)c4ccc5sc(C)nc5c4)CC3)nc2)c1 [Example 4-14]
7 nM	Cc1cc(Nc2cc(C(F)(F)F)ccn2)nc(-c2ccc(NC3CCN(C(=O)c4ccc5cc[nH]c5c4)CC3)nc2)c1 [Example 4-15]
4 nM	CC(=O)N1CCC(Nc2ccc(-c3cc(C)cc(Nc4cc(C(F)(F)F)ccn4)n3)cn2)CC1 [Example 4-16]
32 nM	Cc1cc(Nc2cc(C(F)(F)F)ccn2)nc(-c2ccc(N3CCCC(NC(=O)c4ccc5cc[nH]c5c4)C3)nc2)c1 (stereo not shown) [Example 4-17]
14 nM	CC(=O)NC1CCCN(c2ccc(-c3cc(C)cc(Nc4cc(C(F)(F)F)ccn4)n3)cn2)C1 (stereo not shown) [Example 4-18]
12 nM	Cc1cc(Nc2cc(C(F)(F)F)ccn2)nc(-c2ccc(NC3CCN(C(=O)c4cccc(-c5ccncc5)c4)CC3)nc2)c1 [Example 4-19]

IC50	SMILES
4 nM	Cc1cc(Nc2cc(C(F)(F)F)ccn2)nc(-c2ccc(NC3CCN(C(=O)c4ccccc4N4CCN(C)CC4)CC3)nc2)c1 [Example 4-20]
89 nM	Cc1cc(Nc2cc(C(F)(F)F)ccn2)nc(-c2ccc(NC3CCN(C(=O)c4cc5cccc(C)c5nc4C)CC3)nc2)c1 [Example 4-21]
3 nM	Cc1cc(Nc2cc(C(F)(F)F)ccn2)nc(-c2ccc(NC3CCN(C(=O)c4ccc(C(N)=O)cc4)CC3)nc2)c1 [Example 4-23]
7 nM	Cc1cc(Nc2cc(C(F)(F)F)ccn2)nc(-c2ccc(NC3CCN(C(=O)c4ccc5ccccc5n4)CC3)nc2)c1 [Example 4-24]
209 nM	Cc1cc(Nc2cc(C(F)(F)F)ccn2)nc(-c2ccc(NC3CCN(C(=O)COc4ccccc4-c4ccccc4)CC3)nc2)c1 [Example 4-25]
7 nM	Cc1cc(Nc2cc(C(F)(F)F)ccn2)nc(-c2ccc(NC3CCN(C(=O)c4ccccc4Cn4cncn4)CC3)nc2)c1 [Example 4-26]
3 nM	Cc1cc(Nc2cc(C(F)(F)F)ccn2)nc(-c2ccc(NC3CCN(C(=O)c4cccc(C(N)=O)c4)CC3)nc2)c1 [Example 4-27]
27 nM	Cc1cc(Nc2cc(C(F)(F)F)ccn2)nc(-c2ccc(NC3CCN(C(=O)c4cn[nH]c4-c4ccccc4)CC3)nc2)c1 [Example 4-28]
7 nM	Cc1cc(Nc2cc(C(F)(F)F)ccn2)nc(-c2ccc(NC3CCN(C(=O)c4cccc(Cn5cccn5)c4)CC3)nc2)c1 [Example 4-29]
137 nM	Cc1cc(Nc2cc(C(F)(F)F)ccn2)nc(-c2ccc(NC3CCN(C(=O)c4nn(-c5ccccc5)nc4C)CC3)nc2)c1 [Example 4-30]
54 nM	Cc1cc(Nc2cc(C(F)(F)F)ccn2)nc(-c2ccc(NC3CCN(C(=O)c4ccnn4-c4ccccc4)CC3)nc2)c1 [Example 4-32]
7 nM	Cc1cc(Nc2cc(C(F)(F)F)ccn2)nc(-c2ccc(NC3CCN(C(=O)c4cccc5[nH]ccc45)CC3)nc2)c1 [Example 4-33]
8 nM	Cc1cc(Nc2cc(C(F)(F)F)ccn2)nc(-c2ccc(NC3CCN(C(=O)Cc4ccc5[nH]c(C)c(C)c5c4)CC3)nc2)c1 [Example 4-34]
3 nM	Cc1cc(Nc2cc(C(F)(F)F)ccn2)nc(-c2ccc(NC3CCN(C(=O)c4nccc5ncccc45)CC3)nc2)c1 [Example 4-35]
10 nM	Cc1cc(Nc2cc(C(F)(F)F)ccn2)nc(-c2ccc(NC3CCN(C(=O)c4cccc(-n5cccn5)c4)CC3)nc2)c1 [Example 4-36]
1 nM	Cc1cc(Nc2cc(C(F)(F)F)ccn2)nc(-c2ccc(NC3CCN(C(=O)c4cnn5cccnc45)CC3)nc2)c1 [Example 4-37]
40 nM	Cc1cc(Nc2cc(C(F)(F)F)ccn2)nc(-c2ccc(NC3CCN(C(=O)c4ccccc4N(C)C)CC3)nc2)c1 [Example 4-38]
7 nM	Cc1cc(Nc2cc(C(F)(F)F)ccn2)nc(-c2ccc(NC3CCN(C(=O)c4cccc5cc(O)ccc45)CC3)nc2)c1 [Example 4-39]
102 nM	Cc1cc(Nc2cc(C(F)(F)F)ccn2)nc(-c2ccc(NC3CCN(C(=O)c4cccc(C(F)(F)F)c4)CC3)nc2)c1 [Example 4-40]
58 nM	Cc1cc(Nc2cc(C(F)(F)F)ccn2)nc(-c2ccc(NC3CCN(C(=O)Cc4ccc5ccccc5c4)CC3)nc2)c1 [Example 4-41]
4 nM	Cc1cc(Nc2cc(C(F)(F)F)ccn2)nc(-c2ccc(NC3CCN(C(=O)c4cccc(N(C)C)c4)CC3)nc2)c1 [Example 4-42]

IC50	SMILES
29 nM	Cc1cc(Nc2cc(C(F)(F)F)ccn2)nc(-c2ccc(NC3CCN(C(=O)c4cccc5c4C(=O)c4ccccc4-5)CC3)nc2)c1 [Example 4-43]
< 0.5 nM	Cc1cc(Nc2cc(C(F)(F)F)ccn2)nc(-c2ccc(NC3CCN(C(=O)c4ccc5cccnc5n4)CC3)nc2)c1 [Example 4-44]
7 nM	Cc1cc(Nc2cc(C(F)(F)F)ccn2)nc(-c2ccc(NC3CCN(C(=O)c4cccc5cccnc45)CC3)nc2)c1 [Example 4-45]
4 nM	Cc1cc(Nc2cc(C(F)(F)F)ccn2)nc(-c2ccc(NC3CCN(C(=O)c4cccc(S(C)(=O)=O)c4)CC3)nc2)c1 [Example 4-46]
30 nM	Cc1cc(Nc2cc(C(F)(F)F)ccn2)nc(-c2ccc(NC3CCN(C(=O)c4cc(-n5cccn5)ccc4Cl)CC3)nc2)c1 [Example 4-48]
19 nM	Cc1cc(Nc2cc(C(F)(F)F)ccn2)nc(-c2ccc(NC3CCN(C(=O)c4ccc5ccccc5c4)CC3)nc2)c1 [Example 4-49]
97 nM	Cc1cc(Nc2cc(C(F)(F)F)ccn2)nc(-c2ccc(NC3CCN(C(=O)c4cccc(Oc5ccccc5)c4)CC3)nc2)c1 [Example 4-50]
10 nM	Cc1cc(Nc2cc(C(F)(F)F)ccn2)nc(-c2ccc(NC3CCN(C(=O)c4cnc5ccc(C)cc5c4)CC3)nc2)c1 [Example 4-51]
53 nM	Cc1cc(Nc2cc(C(F)(F)F)ccn2)nc(-c2ccc(NC3CCN(C(=O)Cc4cccc5ccccc45)CC3)nc2)c1 [Example 4-52]
78 nM	COc1ccc2cc(CC(=O)N3CCC(Nc4ccc(-c5cc(C)cc(Nc6cc(C(F)(F)F)ccn6)n5)cn4)CC3)ccc2c1 [Example 4-53]
149 nM	Cc1cc(Nc2cc(C(F)(F)F)ccn2)nc(-c2ccc(NC3CCN(C(=O)c4cccc5c4Cc4ccccc4-5)CC3)nc2)c1 [Example 4-54]
223 nM	COc1ccc2cc(C(C)C(=O)N3CCC(Nc4ccc(-c5cc(C)cc(Nc6cc(C(F)(F)F)ccn6)n5)cn4)CC3)ccc2c1 (stereo not shown) [Example 4-55]
39 nM	CCc1ccc(OCC(=O)N2CCC(Nc3ccc(-c4cc(C)cc(Nc5cc(C(F)(F)F)ccn5)n4)cn3)CC2)cc1 [Example 4-56]
175 nM	Cc1cc(Nc2cc(C(F)(F)F)ccn2)nc(-c2ccc(NC3CCN(C(=O)Cc4ccc(Oc5ccccc5)cc4)CC3)nc2)c1 [Example 4-57]
4 nM	CC(=O)Nc1cccc(C(=O)N2CCC(Nc3ccc(-c4cc(C)cc(Nc5cc(C(F)(F)F)ccn5)n4)cn3)CC2)c1 [Example 4-58]
61 nM	Cc1cc(Nc2cc(C(F)(F)F)ccn2)nc(-c2ccc(NC3CCN(C(=O)c4cccc5ccccc45)CC3)nc2)c1 [Example 4-59]
422 nM	Cc1cc(Nc2cc(C(F)(F)F)ccn2)nc(-c2ccc(NC3CCN(C(=O)c4cn(Cc5ccccc5)c5ccccc45)CC3)nc2)c1 [Example 4-60]
4 nM	Cc1cc(Nc2cc(C(F)(F)F)ccn2)nc(-c2ccc(NC3CCN(C(=O)c4cc5ccccc5cn4)CC3)nc2)c1 [Example 4-61]
15 nM	Cc1cc(Nc2cc(C(F)(F)F)ccn2)nc(-c2ccc(NC3CCN(C(=O)c4cccc(-c5cc[nH]n5)c4)CC3)nc2)c1 [Example 4-62]

— patent US9145391B2, “Bipyridylaminopyridines as Syk inhibitors” (Merck Sharp & Dohme Corp., priority 2011, dated 2015)
